# In patent US10670605B2, “Cysteine reactive probes and uses thereof” (The Scripps Research Institute, priority 2015, dated 2020):
# Key:
# [1] = system: cysteines in MDA-MB-231 and Ramos cell proteomes; experiment: Competitive isoTOP-ABPP in cell lysates (in vitro): proteomic reactivity / liganded cysteine rate; format: binding, human; conditions: for proteomic reactivity value (liganded cysteine rate): fragment 500 μM, % of quantified cysteines with R ≥4
# Procedure: All cell lines were obtained from ATCC, were used with a low passage number and were grown at 37° C. with 5% CO2. MDA-MB-231 cells and HEK-293T cells were grown in DMEM supplemented with 10% fetal bovine serum, penicillin, streptomycin and glutamine. Jurkat, Ramos and MUM2C cells were grown in RPMI-1640 medium supplemented with 10% fetal bovine serum, penicillin and streptomycin. For in vitro labeling, cells were grown to 100% confluence for MDA-MB-231 cells or until cell density reached 1.5 million cells/mL for Ramos and Jurkat cells. […] Cell pellets were lysed by sonication and fractionated (100,000 g, 45 min) to yield soluble and membrane fractions, which were then adjusted to a final protein concentration of 1.5 mg/mL for proteomics experiments and 1 mg/mL for gel-based ABPP experiments. The soluble lysate was prepared fresh from frozen pellets directly before each experiment. Protein concentration was determined using the Bio-Rad DC™ protein assay kit.
# For each sample, 100 μL of streptavidin-agarose beads slurry (Pierce) was washed in 10 mL PBS and then resuspended in 5 mL PBS. The SDS-solubilized proteins were added to the suspension of streptavidin-agarose beads and the bead mixture was rotated for 3 h at ambient temperature. After incubation, the beads were pelleted by centrifugation (1,400 g, 3 min) and were washed (2×10 mL PBS and 2×10 mL water).
# The beads were transferred to eppendorf tubes with 1 mL PBS, centrifuged (1,400 g, 3 min), and resuspended in PBS containing 6 M urea (500 μL). To this was added 10 mM DTT (25 μL of a 200 mM stock in water) and the beads were incubated at 65° C. for 15 mins. 20 mM iodoacetamide (25 μL of a 400 mM stock in water) was then added and allowed to react at 37° C. for 30 mins with shaking. The bead mixture was diluted with 900 μL PBS, pelleted by centrifugation (1,400 g, 3 min), and resuspended in 200 μL PBS. To this was added 1 mM CaCl2 ([…]) and trypsin (2 μg, Promega, sequencing grade) and the digestion was allowed to proceed overnight at 37° C. with shaking. The beads were separated from the digest with Micro Bio-Spin columns (Bio-Rad) by centrifugation (1,000 g, 1 min), washed (2×1 mL PBS and 2×1 mL water) and then transferred to fresh eppendorfs with 1 mL water. The washed beads were washed once further in 140 μL TEV buffer (50 mM Tris, pH 8, 0.5 mM EDTA, 1 mM DTT) and then resuspended in 140 μL TEV buffer. 5 μL TEV protease (80 μM) was added and the reactions were rotated overnight at 29° C. The TEV digest was separated from the beads with Micro Bio-Spin columns by centrifugation (1,400 g, 3 min) and the beads were washed once with water (100 μL). The samples were then acidified to a final concentration of 5% (v/v) formic acid and stored at −80° C. prior to analysis.
# [2] = target: T1, IMPDH2 (C140) (Homo sapiens, UniProt P12268); experiment: Click probe 18 labeling of recombinant IMPDH2 and its competition; format: binding; conditions: probe 18 25 μM
# T1 construct: Full length cDNAs encoding for IDH1 (Open Biosystems, Clone ID: 3880331) and IMPDH2 (Open Biosystems, Clone ID: 3447994); His6 (C); made in house; host or cells: E. coli BL21(DE3)
# [3] = system: protein targets in MDA-MB-231 cells; experiment: Whole protein capture with click probes (SILAC proteomics), native vs heat denatured; format: binding, human; conditions: proteins liganded by parent fragment (3 / 14) and enriched by click probe (19 / 18)
# Procedure: Protein enrichment by 18 and 19 was measured by whole protein capture of isotopically-SILAC labeled MDA-MB-231 cells using quantitative (SILAC) proteomics.
# [4] = target: T2, ACAT1 C126 (P24752) (Homo sapiens, UniProt P24752); experiment: Competitive isoTOP-ABPP, cell lysates; format: binding; conditions: 500 μm, in-vitro_ramos_231
# T2 sequence (P24752 34-427): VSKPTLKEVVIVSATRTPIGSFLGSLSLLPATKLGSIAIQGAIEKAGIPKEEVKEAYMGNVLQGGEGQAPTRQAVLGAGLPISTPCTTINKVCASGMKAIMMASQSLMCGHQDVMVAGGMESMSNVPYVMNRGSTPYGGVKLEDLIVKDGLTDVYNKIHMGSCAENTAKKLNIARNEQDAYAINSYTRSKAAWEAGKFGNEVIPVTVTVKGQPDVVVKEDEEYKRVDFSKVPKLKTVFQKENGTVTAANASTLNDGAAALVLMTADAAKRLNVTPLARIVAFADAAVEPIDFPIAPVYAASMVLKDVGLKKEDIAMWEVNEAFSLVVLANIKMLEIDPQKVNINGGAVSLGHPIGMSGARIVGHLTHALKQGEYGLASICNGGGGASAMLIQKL
# [5] = target: T3, ACAT1 C196 (P24752) (Homo sapiens, UniProt P24752); experiment: Competitive isoTOP-ABPP, cell lysates; format: binding; conditions: 500 μm, in-vitro_ramos_231
# T3 sequence (P24752 34-427): T2 sequence (P24752 34-427)
# [6] = target: T4, ACAT1 C413 (P24752) (Homo sapiens, UniProt P24752); experiment: Competitive isoTOP-ABPP, cell lysates; format: binding; conditions: 500 μm, in-vitro_ramos_231
# T4 sequence (P24752 34-427): T2 sequence (P24752 34-427)
# [7] = target: T5, PDIA6 C55 (Q15084) (Homo sapiens, UniProt Q15084); experiment: Competitive isoTOP-ABPP, cell lysates; format: binding; conditions: 500 μm, in-vitro_ramos_231
# T5 sequence (Q15084 20-440): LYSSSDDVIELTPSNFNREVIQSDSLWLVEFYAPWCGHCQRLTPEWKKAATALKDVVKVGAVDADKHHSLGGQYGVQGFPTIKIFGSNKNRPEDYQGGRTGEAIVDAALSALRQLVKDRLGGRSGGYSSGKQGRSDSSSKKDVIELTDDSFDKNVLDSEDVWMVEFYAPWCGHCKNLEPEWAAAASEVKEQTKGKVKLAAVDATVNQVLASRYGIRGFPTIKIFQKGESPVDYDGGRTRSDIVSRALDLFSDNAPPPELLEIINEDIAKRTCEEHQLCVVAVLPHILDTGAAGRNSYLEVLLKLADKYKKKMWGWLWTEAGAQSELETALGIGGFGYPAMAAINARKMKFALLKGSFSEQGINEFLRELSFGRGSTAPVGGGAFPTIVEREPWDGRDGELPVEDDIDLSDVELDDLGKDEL
# Procedure: (§1) TEV digests were pressure loaded onto a 250 μm (inner diameter) fused silica capillary column packed with C18 resin (Aqua 5 μm, Phenomenex). The samples were analyzed by multidimensional liquid chromatography tandem mass spectrometry (MudPIT), using an LTQ-Velos Orbitrap mass spectrometer (Thermo Scientific) coupled to an Agilent 1200-series quaternary pump. The peptides were eluted onto a biphasic column with a 5 μm tip (100 μm fused silica, packed with C18 (10 cm) and bulk strong cation exchange resin (3 cm, SCX, Phenomenex,)) in a 5-step MudPIT experiment, using 0%, 30%, 60%, 90%, and 100% salt bumps of 500 mM aqueous ammonium acetate and using a gradient of 5-100% buffer B in buffer A (buffer A: 95% water, 5% acetonitrile, 0.1% formic acid; buffer B: 5% water, 95% acetonitrile, 0.1% formic acid) as has been described in Weerapana et al. Nat Protoc 2:1414-1425 (2007). Data was collected in data-dependent acquisition mode with dynamic exclusion enabled (20 s, repeat of 2). One full MS (MS1) scan (400-1800 m/z) was followed by 30 MS2 scans (ITMS) of the nth most abundant ions.
# (§2) The ratios of heavy/light for each unique peptide (DMSO/compound treated; isoTOP-ABPP ratios, R values) were quantified with in-house CIMAGE software, using default parameters (3 ms s per peak and signal to noise threshold 2.5). Site-specific engagement of electrophilic fragments was assessed by blockade of IA-alkyne probe labeling. […] Ratios for unique peptide entries were calculated for each experiment; overlapping peptides with the same modified cysteine (e.g. different charge states, MudPIT chromatographic steps or tryptic termini) were grouped together and the median ratio was reported as the final ratio (R). The peptide ratios reported by CIMAGE were further filtered to ensure the removal or correction of low quality ratios in each individual dataset. The quality filters applied were the following: removal of half tryptic peptides; for ratios with high standard deviations from the median (90% of the median or above) the lowest ratio was taken instead of the median; removal of peptides with R=20 and only a single ms2 event triggered during the elution of the parent ion; manual annotation of all the peptides with ratios of 20, removing any peptides with low-quality elution profiles that remained after the previous curation steps. Proteome reactivity values for individual fragments were computed as the percentage of the total quantified cysteine-containing peptides with R values≥4 (defined as liganded cysteines) for each replicate experiment and the final proteome reactivity value was calculated as the mean for all replicate experiments for each fragment from both MDA-MB-231 and Ramos cellular proteomes.
# (§3) Biological replicates of the same compound and cell-line were averaged if the standard deviation was below 60% of the mean; otherwise the lowest value of the ratio set was taken.
# [8] = target: GSTP1 C48 (P09211) (Homo sapiens, UniProt P09211); experiment: Competitive isoTOP-ABPP, cell lysates; format: binding; conditions: 500 μm, in-vitro_ramos_231;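 also: Heavy/light ratio DMSO over fragment-treated so higher means more cysteine engagement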
# Sequence of GSTP1 C48 (P09211) (P09211 whole entry, the tested form may be a part): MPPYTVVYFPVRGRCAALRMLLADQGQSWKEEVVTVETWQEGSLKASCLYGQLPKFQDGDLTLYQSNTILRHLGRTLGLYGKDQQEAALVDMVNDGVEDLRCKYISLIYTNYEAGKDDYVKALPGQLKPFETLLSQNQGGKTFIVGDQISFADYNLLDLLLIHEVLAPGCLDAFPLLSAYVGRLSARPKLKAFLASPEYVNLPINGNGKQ
# Procedure: as §1, §2, §3
# [9] = target: DCUN1D1 C115 (Q96GG9) (Homo sapiens, UniProt Q96GG9); experiment: Competitive isoTOP-ABPP, cell lysates; format: binding; conditions: 500 μm, in-vitro_ramos_231
# Sequence of DCUN1D1 C115 (Q96GG9) (Q96GG9 whole entry): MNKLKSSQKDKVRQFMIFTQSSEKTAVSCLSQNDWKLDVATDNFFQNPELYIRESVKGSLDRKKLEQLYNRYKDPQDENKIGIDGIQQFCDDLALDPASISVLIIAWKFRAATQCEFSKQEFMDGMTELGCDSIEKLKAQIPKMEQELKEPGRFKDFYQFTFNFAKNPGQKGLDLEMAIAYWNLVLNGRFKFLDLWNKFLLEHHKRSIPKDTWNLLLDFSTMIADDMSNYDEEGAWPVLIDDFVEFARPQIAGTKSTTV
# Procedure: as §1, §2, §3
# [10] = target: CASP8 C360 (Q14790) (Homo sapiens, UniProt Q14790); experiment: Competitive isoTOP-ABPP, cell lysates; format: binding
# Sequence of CASP8 C360 (Q14790) (Q14790 whole entry): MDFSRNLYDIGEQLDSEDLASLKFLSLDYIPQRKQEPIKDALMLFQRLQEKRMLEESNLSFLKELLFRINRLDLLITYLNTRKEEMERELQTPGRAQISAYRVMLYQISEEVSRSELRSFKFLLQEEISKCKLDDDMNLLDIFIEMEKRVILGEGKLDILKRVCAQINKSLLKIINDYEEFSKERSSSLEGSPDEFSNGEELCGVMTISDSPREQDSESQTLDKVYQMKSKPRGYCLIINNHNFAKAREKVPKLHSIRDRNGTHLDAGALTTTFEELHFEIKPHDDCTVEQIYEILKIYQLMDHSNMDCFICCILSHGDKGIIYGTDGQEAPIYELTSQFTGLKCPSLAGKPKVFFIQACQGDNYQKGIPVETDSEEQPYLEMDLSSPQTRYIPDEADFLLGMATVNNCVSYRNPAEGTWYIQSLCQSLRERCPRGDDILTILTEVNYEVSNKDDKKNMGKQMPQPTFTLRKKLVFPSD
# Procedure: as §1, §2, §3
# [11] = target: STAT3 C259 (P40763) (Homo sapiens, UniProt P40763); experiment: Competitive isoTOP-ABPP, cell lysates; format: binding; conditions: 500 μm, in-vitro_ramos_231
# Sequence of STAT3 C259 (P40763) (P40763 whole entry): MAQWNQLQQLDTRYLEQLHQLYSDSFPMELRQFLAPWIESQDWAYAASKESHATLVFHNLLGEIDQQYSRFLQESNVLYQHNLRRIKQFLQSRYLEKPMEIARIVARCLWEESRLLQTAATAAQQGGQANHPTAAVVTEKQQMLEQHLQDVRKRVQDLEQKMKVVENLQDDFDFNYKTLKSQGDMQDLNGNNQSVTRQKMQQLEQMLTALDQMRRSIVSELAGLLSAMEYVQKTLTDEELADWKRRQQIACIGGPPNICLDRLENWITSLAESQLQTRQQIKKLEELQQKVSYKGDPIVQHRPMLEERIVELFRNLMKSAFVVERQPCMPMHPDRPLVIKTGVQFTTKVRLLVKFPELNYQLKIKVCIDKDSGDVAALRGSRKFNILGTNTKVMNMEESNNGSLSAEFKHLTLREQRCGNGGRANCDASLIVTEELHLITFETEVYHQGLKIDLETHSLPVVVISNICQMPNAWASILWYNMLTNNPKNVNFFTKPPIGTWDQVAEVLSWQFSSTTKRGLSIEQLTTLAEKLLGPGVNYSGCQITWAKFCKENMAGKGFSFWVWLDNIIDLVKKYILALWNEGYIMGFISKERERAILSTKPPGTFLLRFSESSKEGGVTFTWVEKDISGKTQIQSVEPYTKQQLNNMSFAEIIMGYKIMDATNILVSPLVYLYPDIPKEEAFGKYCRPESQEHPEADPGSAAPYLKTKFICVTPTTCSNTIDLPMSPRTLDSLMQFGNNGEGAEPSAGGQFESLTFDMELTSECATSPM
# Procedure: as §1, §2, §3
# [12] = target: PRMT1 C109 (Q99873) (Homo sapiens, UniProt Q99873); experiment: Competitive isoTOP-ABPP, cell lysates; format: binding; conditions: 500 μm, in-vitro_ramos_231;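 also: Heavy/light ratio DMSO over fragment-treated so higher means more cysteine engagement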
# Sequence of PRMT1 C109 (Q99873) (Q99873 whole entry, the tested form may be a part): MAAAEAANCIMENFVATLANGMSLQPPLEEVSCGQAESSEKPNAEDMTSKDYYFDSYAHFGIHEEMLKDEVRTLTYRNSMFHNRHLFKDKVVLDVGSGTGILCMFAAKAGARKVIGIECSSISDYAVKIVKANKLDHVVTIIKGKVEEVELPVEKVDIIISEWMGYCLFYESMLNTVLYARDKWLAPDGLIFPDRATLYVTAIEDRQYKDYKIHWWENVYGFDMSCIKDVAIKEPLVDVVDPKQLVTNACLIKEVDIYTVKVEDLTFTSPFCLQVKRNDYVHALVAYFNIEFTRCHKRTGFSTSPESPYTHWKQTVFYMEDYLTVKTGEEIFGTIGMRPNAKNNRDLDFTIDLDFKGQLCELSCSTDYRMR
# Procedure: as §1, §2, §3
# [13] = target: IDH1 C269 (O75874) (Homo sapiens, UniProt O75874); experiment: Competitive isoTOP-ABPP, cell lysates; format: binding; conditions: 500 μm, in-vitro_ramos_231
# Sequence of IDH1 C269 (O75874) (O75874 whole entry): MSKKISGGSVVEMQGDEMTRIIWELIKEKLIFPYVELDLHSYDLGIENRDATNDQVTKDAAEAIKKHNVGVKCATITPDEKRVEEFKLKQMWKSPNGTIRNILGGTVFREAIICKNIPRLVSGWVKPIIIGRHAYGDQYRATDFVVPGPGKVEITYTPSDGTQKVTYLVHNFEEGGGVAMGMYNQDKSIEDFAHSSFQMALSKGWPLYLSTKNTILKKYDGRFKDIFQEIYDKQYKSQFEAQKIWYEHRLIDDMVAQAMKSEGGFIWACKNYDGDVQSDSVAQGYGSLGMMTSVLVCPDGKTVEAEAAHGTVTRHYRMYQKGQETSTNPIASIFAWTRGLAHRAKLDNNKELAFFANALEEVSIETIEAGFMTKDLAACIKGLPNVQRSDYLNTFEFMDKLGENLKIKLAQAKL
# Procedure: as §1, §2, §3
# [14] = target: T6, PDIA6 C190 (Q15084) (Homo sapiens, UniProt Q15084); experiment: Competitive isoTOP-ABPP, cell lysates; format: binding; conditions: 500 μm, in-vitro_ramos_231;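 also: Heavy/light ratio DMSO over fragment-treated so higher means more cysteine engagement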
# T6 sequence (Q15084 20-440): T5 sequence (Q15084 20-440)
# Procedure: as §1, §2, §3
# [15] = target: MLTK C22 (Q9NYL2) (Homo sapiens, UniProt Q9NYL2); experiment: Competitive isoTOP-ABPP, cell lysates; format: binding; conditions: 500 μm, in-vitro_ramos_231
# Sequence of MLTK C22 (Q9NYL2) (Q9NYL2 whole entry): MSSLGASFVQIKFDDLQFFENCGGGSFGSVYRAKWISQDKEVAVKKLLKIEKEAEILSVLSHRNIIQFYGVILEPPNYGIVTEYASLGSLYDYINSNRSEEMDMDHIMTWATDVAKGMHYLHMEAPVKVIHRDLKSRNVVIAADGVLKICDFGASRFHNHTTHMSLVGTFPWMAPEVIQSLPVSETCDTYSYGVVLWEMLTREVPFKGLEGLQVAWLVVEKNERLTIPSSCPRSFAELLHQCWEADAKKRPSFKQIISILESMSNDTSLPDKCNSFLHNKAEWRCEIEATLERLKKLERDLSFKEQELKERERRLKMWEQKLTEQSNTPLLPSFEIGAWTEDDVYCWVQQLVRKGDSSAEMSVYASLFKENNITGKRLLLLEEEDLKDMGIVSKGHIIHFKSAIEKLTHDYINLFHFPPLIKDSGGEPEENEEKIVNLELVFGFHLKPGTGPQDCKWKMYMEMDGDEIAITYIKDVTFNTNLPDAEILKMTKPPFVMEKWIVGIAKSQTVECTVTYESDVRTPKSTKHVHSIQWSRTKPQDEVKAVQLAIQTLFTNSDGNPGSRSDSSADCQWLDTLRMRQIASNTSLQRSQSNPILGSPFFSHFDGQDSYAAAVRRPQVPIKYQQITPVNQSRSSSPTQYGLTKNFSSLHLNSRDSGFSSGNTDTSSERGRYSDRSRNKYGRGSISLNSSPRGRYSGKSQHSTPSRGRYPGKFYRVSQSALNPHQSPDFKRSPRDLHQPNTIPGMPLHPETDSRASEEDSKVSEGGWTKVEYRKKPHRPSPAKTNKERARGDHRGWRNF
# Procedure: as §1, §2, §3
# [16] = target: XPO1 C34 (O14980) (Homo sapiens, UniProt O14980); experiment: Competitive isoTOP-ABPP, cell lysates; format: binding; conditions: 500 μm, in-vitro_ramos_231
# Sequence of XPO1 C34 (O14980) (O14980 whole entry): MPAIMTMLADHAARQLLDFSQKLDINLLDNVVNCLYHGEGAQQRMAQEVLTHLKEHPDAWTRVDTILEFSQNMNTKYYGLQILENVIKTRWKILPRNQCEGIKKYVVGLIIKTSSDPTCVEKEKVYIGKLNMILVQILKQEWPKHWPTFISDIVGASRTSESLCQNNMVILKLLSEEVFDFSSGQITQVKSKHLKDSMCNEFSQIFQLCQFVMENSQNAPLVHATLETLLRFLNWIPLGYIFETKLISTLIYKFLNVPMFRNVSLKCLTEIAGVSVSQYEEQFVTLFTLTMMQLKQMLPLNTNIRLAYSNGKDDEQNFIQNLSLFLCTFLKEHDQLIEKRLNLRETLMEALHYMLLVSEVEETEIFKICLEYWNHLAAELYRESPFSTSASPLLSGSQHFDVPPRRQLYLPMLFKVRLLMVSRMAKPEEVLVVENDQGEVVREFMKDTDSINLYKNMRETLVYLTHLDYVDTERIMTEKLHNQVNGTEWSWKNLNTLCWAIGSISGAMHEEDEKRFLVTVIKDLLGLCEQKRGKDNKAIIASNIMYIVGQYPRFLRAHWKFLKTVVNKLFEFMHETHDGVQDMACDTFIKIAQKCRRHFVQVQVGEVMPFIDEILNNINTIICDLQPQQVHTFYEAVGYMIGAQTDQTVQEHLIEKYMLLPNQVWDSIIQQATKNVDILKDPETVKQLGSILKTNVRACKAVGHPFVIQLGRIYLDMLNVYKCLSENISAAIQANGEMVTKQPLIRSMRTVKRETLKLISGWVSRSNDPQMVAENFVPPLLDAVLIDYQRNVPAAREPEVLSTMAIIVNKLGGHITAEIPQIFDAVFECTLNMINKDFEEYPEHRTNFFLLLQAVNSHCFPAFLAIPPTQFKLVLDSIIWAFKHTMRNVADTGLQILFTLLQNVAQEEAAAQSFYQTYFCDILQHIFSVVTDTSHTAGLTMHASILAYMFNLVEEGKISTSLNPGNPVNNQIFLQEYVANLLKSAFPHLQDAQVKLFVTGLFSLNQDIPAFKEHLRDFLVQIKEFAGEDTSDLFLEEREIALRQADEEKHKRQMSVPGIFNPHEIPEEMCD
# Procedure: as §1, §2, §3
# [17] = target: T7, ACAT1 C119 (P24752) (Homo sapiens, UniProt P24752); experiment: Competitive isoTOP-ABPP, cell lysates; format: binding; conditions: 500 μm, in-vitro_ramos_231
# T7 sequence (P24752 34-427): T2 sequence (P24752 34-427)
# [18] = target: T8, pro-CASP8 (Homo sapiens, UniProt Q14790, D374A/D384A); experiment: Click probe 61 labeling of pro-CASP8 and its competition; format: binding
# T8 construct: a truncated CASP8 (residues 217-479) without the CARD domain; His6 (C); made in house; host or cells: E. coli BL21(DE3)pLysS
# T8 sequence (Q14790 217-479 D374A/D384A): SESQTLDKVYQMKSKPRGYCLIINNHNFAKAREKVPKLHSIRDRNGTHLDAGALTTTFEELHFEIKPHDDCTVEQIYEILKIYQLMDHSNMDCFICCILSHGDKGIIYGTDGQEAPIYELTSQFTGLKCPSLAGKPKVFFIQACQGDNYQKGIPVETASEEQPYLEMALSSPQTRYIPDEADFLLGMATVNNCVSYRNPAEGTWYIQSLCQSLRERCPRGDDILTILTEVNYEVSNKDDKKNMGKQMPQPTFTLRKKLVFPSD
structure (smiles),measurement,setting,value
C=CC(=O)Nc1cc(C(F)(F)F)cc(C(F)(F)F)c1 [compound 14],proteomic reactivity value (liganded cysteine rate),[1],3.4%
same,inhibition of 18 labeling of IMPDH2 by fragments,[2],inhibited
CC(=O)Nc1cc(C(F)(F)F)cc(C(F)(F)F)c1 [compound 17],relative proteomic reactivity (in words),"[1]; 500 μM, electrophiles on common 3,5-di(trifluoromethyl)phenyl group",negligible activity
same,proteomic reactivity value (liganded cysteine rate),[1],< 0.2%
C#CCCCCNC(=O)c1cc(NC(=O)CCl)cc(C(F)(F)F)c1 [compound 19],percentage of quantified protein targets sensitive to heat denaturation,[3],64%
Cc1ncc(CO)c(CNC(=O)CCl)c1O [compound 54],"isoTOP-ABPP reactivity profile ratio, P24752_C126",[4],1.1
same,"isoTOP-ABPP reactivity profile ratio, P24752_C196",[5],1.1
same,"isoTOP-ABPP reactivity profile ratio, P24752_C413",[6],1.1
same,"isoTOP-ABPP reactivity profile ratio, Q15084_C55",[7],1.2
same,"isoTOP-ABPP reactivity profile ratio, P09211_C48",[8],1.3
same,"isoTOP-ABPP reactivity profile ratio, Q96GG9_C115",[9],1.1
same,"isoTOP-ABPP reactivity profile ratio, Q14790_C360","[10]; 500 μm, in-vitro_ramos_231",1.2
same,"isoTOP-ABPP reactivity profile ratio, P40763_C259",[11],1.3
same,"isoTOP-ABPP reactivity profile ratio, Q99873_C109",[12],1.2
same,"isoTOP-ABPP reactivity profile ratio, O75874_C269",[13],1.1
same,"isoTOP-ABPP reactivity profile ratio, Q15084_C190",[14],1.2
same,"isoTOP-ABPP reactivity profile ratio, Q9NYL2_C22",[15],1.1
same,"isoTOP-ABPP reactivity profile ratio, O14980_C34",[16],1.1
same,"isoTOP-ABPP reactivity profile ratio, P24752_C119",[17],1.0
C#Cc1cccc(C(=O)N2CCC(N(C(=O)CCl)c3ccccc3)CC2)c1 [compound 61],R value for direct labeling of C360 (10 versus 100 μM probe),[10]; Jurkat cell lysates,2
same,direct labeling of pro-CASP8 by click probe,[18],strongly labeled
